Experimental data from patent US20240309090A1, “MODULATION OF ANDROGEN SIGNALING TO INNATE IMMUNE KILLING OF PROSTATE CANCER” (Brown University, priority 2023, published 2024).

Assays:
NK-92 cells = test: Flow cytometry of NK-92 activation markers CD69 and CD137; format: cell-based; conditions: NK-92 monoculture, 48 h
Procedure: The surface expression of the NK cell activation markers CD69 and CD137 were also evaluated following the treatment of NK cell monocultures with ARi (FIG. 13D-E).
(§1) PCa cells were plated at a density of 3×10^5 cells per well of a 6-well plate and adhered overnight. […] After treatment, cells were trypsinized, stained, and incubated (Cell Staining Buffer SouthernBiotech #0225-01S) with the corresponding antibody for 45-60 min at 4° C. Viability dye was added with each run. NK-92 cells and patient-derived cells were stained similarly. Markers used for experiments included: Thermofisher HLA-E Monoclonal Antibody (3D12HLA-E), Alexa Fluor™ 488, eBioscience™, CD274 (PD-L1, B7-H1) Monoclonal Antibody (MIH1), eFluor™ 450, eBioscience™, Cell Signaling PD-1 (D4W2J) XPR Rabbit mAb, SYTOX™ Orange Dead Cell Stain, for flow cytometry, BioLegend APC anti-human CD159a (NKG2A) Antibody #375108, BioLegend APC anti-human CD69 Antibody #310909, BioLegend Alexa Fluor® 647 anti-human CD137 (4-1BB) [4B4-1] #309823. For staining of the patient-derived PBMCs and subsequent NK cell characterization, the following antibodies were used: BioLegend Anti-Perforin Mouse Monoclonal Antibody (PerCP Cy5.50, clone: dG9) #308113, BioLegend Anti-Granzyme B Mouse Monoclonal Antibody (FITC, clone: GB11) #515403, BioLegend Anti-CD56 Mouse Monoclonal Antibody (Alexa Fluor® 700, clone: 5.1H1) #362521, and BioLegend (PE anti-human CD45 Antibody) #304008.

[1] = system: PCa cell lines (PC3, LNCaP, 22Rv1, DU145); test: Cytokine profiling of prostate cancer cell culture supernatants (Luminex 200); format: cell-based; conditions: for IFN-γ secretion: DU145, 22Rv1, and PC3 cell lines; for secretion of immune-activating cytokines such as IL-2 / secretion of pro-tumorigenic and immunosuppressive cytokines such as VEGF, M-CSF, IL-8, CXCL10 and GDF-15: PCa cell lines, 24 h
Procedure: GDF-15 is implicated in the immunosuppressive prostate cancer TME and the progression of benign prostate hyperplasia to adenocarcinoma.
The medium was collected 24 hours after treatment and stored at −80° C. until readout. Samples were shipped to Brown University to run them in biological duplicate on a Luminex 200 Instrument (R&D LX200-XPON-RUO), which captures cytokines on magnetic antibody-coated beads and measures cytokine levels using a system based on the principles of flow cytometry (see https:/www.luminexcorp.com/luminex-100200/#overviewfor more information). A custom […] panel was split into 34-plex and 18-plex assays (R&D LXSAHM) and was run on the Luminex 200 instrument according to the manufacturer's protocol.
We conducted cell viability assays to investigate the effect of Enza and Daro on PC cells (LNCap, 22Rv1 [ARv7 mutation], DU145, PC3 [AR-]) and NK-92 cells. We performed co-culture experiments with PC and NK cells in a 1:1 ratio and analyzed immune cell-mediated tumor cell killing (ImageXpress Confocal HT). Cytokine profiling (Luminex 200) of culture supernatants was performed following treatment with ARi−/+ and anti-IFN-γ antibodies. In vivo studies were performed in NCr Nude mice harboring subcutaneous PC tumors treated orally with Daro (50 mg/kg/bid) and Enza (30 mg/kg/bid) for 4 weeks.

LNCaP = test: Co-culture of GFP-expressing LNCaP with patient-derived NK cells; format: cell-based, human; conditions: GFP LNCaP, 1:1, 24 h; monalizumab in combination with enza and daro
Excerpt: To validate an additive effect of ARi and monalizumab enhancing NK cell cytotoxicity, we performed a co-culture assay with GFP-labeled PCa cell lines (including ARi-sensitive LNCaP and ARi-resistant PC3) and patient-derived NK cells. The NK cells were negatively selected from whole blood from patients with metastatic prostate cancer before initiation of androgen deprivation therapy. The addition of enzalutamide or darolutamide enhanced the cytotoxicity of NK cells, and the combination of ARi with monalizumab potentiated immune killing (FIG. 15C-D).
Prostate cancer cell lines were dyed with the blue CMAC live-cell dye (Thermo Fisher Scientific #C2110, per manufacturer protocol). Blue-fluorescent cancer cells were plated at a density of 10,000 cells per well of a 48-well plate. NK-92 cells were dyed with green CMFDA (Cayman Chemical Company #19583, per manufacturer protocol). Green-fluorescent NK-92 cells were added to the blue-fluorescent cancer cells at a 1:1 ratio. Enzalutamide (10 μM), darolutamide (20 μM), and 1 μM ethidium homodimer (EthD-1) were added at the same time as the NK cells. After 24 hours of co-culture, images of live cancer cells, live NK cells, and dead cells were taken using a fluorescent microscope. The co-culture experiments were run with internal control conditions and as a single treatment. Normalization was performed after analysis to take baseline death conditions into each experiment run. To optimize the high output of these experiments, a subset of co-cultures were performed using the ImageXpress® Micro Confocal High-Content Imaging. This analysis maintained the experiment conditions, drug concentrations, and the dyeing process. When GFP-labeled tumor cells were used for culture assays, they were added in a 1:1 ratio. Cell adhered over 24 h, and when patient-derived NK cells were added, a control well was trypsinized, and cells resuspended and counted to adjust a 1:1 ratio before treatment addition. The experiments with blocking antibodies were performed using the ImageXpress system. TRAIL blocking ab was purchased from Santa Cruz TRAIL Antibody (RIK-2): sc-56246, and IFN gamma blocking Monoclonal Antibody (NIB42, #6-7318-81) was purchased from Thermo Fisher. The blocking mAb was added when NK cells were combined with tumor cells.
NK cells were isolated from patients harboring metastatic castration-sensitive prostate cancer using the MojoSort™ Human NK Cell Isolation Kit (#480053). Patients signed informed consent for IRB-approved research protocol number 2055-13, allowing the collection of peripheral blood samples. […] The untouched NK cells (CD56+, CD3−) were collected, and the purity of isolation was determined by flow cytometry using anti-CD56 (BioLegend 362503). […]

NK cells = test: Flow cytometry of NKG2A and PD-1 surface expression on NK cells; format: cell-based
Procedure: as §1
Methods: PCa cell lines (LNCaP, 22Rv1 [ARv7 mutation], DU145[AR-], PC3 [AR-]) were cocultured with NK-92 cells and treated with ARi (enzalutamide [enza] and darolutamide [daro]) or in combination with anti-NKG2A antibody monalizumab. Immune cell-mediated tumor cell killing assays and multiplexed cytokine profiling were performed. NKc expression of NKG2A and PCa cells expression of HLA-E were investigated by flow cytometry. The AR-negative cell lines (PC3 and DU145) were stably transduced with a functional AR pathway to evaluate the modulation of HLA-E by AR. The activation status of peripheral blood NKc isolated from patients with PCa before and post-initiation of androgen deprivation therapy (ADT) was investigated by flow cytometry.

Question: `CC(O)c1cc(C(=O)N[C@@H](C)Cn2ccc(-c3ccc(C#N)c(Cl)c3)n2)n[nH]1` (some centres unmarked) [darolutamide] was tested. Which “expression of CD69” value (NK-92 cells) did it give?
Answer: 88.63%

Question: What about the “expression of CD137” value (NK-92 cells) of the same molecule?
Answer: 64.87%

Question: And the IFN-γ secretion [1]?
Answer: upregulation

Question: And the “secretion of immune-activating cytokines such as IL-2” value [1]?
Answer: increased

Question: What about the “secretion of pro-tumorigenic and immunosuppressive cytokines such as VEGF, M-CSF, IL-8, CXCL10 and GDF-15” value [1] of the same molecule?
Answer: reduced

Question: What about the “killing of PCa cells by patient-derived NK cells (in words)” value (LNCaP) of the same molecule?
Answer: enhanced

Question: What about the “surface expression of NKG2A” value (NK cells) of the same molecule?
Answer: modulate

Question: Which “expression of CD69” value (NK-92 cells) does the source give for `CNC(=O)c1ccc(N2C(=S)N(c3ccc(C#N)c(C(F)(F)F)c3)C(=O)C2(C)C)cc1F` [enzalutamide] here?
Answer: 87.4%

Question: What about the “expression of CD137” value (NK-92 cells) of the same molecule?
Answer: 61.54%

Question: And the IFN-γ secretion [1]?
Answer: upregulation

Question: What about the “secretion of immune-activating cytokines such as IL-2” value [1] of the same molecule?
Answer: increased

Question: And the “secretion of pro-tumorigenic and immunosuppressive cytokines such as VEGF, M-CSF, IL-8, CXCL10 and GDF-15” value [1]?
Answer: reduced

Question: And the “killing of PCa cells by patient-derived NK cells (in words)” value (LNCaP)?
Answer: enhanced

Question: What about the “surface expression of NKG2A” value (NK cells) of the same molecule?
Answer: modulate
